Structures are written as SMILES.

T1 sequence (P37288 whole entry): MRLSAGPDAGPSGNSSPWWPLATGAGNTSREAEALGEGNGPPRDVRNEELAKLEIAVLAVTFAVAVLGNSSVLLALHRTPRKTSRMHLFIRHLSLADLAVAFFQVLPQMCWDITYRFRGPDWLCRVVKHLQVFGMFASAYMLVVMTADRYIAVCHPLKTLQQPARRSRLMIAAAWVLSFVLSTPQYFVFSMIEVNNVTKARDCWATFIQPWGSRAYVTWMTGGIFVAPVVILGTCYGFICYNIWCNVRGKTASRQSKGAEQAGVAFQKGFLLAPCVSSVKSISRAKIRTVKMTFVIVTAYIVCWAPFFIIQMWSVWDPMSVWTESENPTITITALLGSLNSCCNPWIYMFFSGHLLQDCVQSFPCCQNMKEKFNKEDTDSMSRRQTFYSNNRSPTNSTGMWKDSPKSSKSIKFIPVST

One experiment addresses T1, human vasopressin V1a receptor subtype (Homo sapiens, UniProt P37288).
T1 construct: host or cells: CHO cells, stably transfected (pZeoSV vector for the Thibonnier line); membranes
The experiment in a line: Vasopressin binding in CHO cell membranes expressing human vasopressin V1a subtype receptors ([3H]Manning ligand). The note with it: 100 nM, value without parentheses. From the text:
Vasopressin Binding in Chinese Hamster Ovary Cell Membranes Expressing Human Vasopressin V1a Subtype Receptors
Chinese hamster ovary cells (CHO cells) stably transfected with the human vasopressin V1a subtype receptors were either obtained from Biosignal Inc., 1744 rue Williams, Montreal, Quebec, Canada or obtained from M. Thibonnier, Case Western Reserve University School of Medicine, Cleveland, Ohio.
A. Passaging and Amplification of Cells:
CHO cells transfected with the human vasopressin V1a subtype receptors obtained from M. Thibonnier (pZeoSV vector) are allowed to grow to confluency (approx. >90%) in T-150 flasks under sterile conditions, in a cell culture medium of F-12 Nutrient Mixture (HAM) with L-glutamine (Gibco Cat. #11765-054) containing 15 mM HEPES (Gibco Cat. #15630-080), 1% antibiotic/antimycotic (add 5 mL 100×, Gibco Cat. #15240-062 per 500 mL F-12), 250 μg/mL Zeocin (add 1.25 mL of 100 mg/mL Invitrogen R-250-01 per 500 mL F-12) and 10% Fetal Bovine Serum (Qualified, heat inactivated, Gibco Cat. #16140-063). The medium is removed by aspiration and the cells are washed with 10 mL of Hank's Balanced Salt solution (Gibco Cat. #14175-095). The salt solution is removed by aspiration and the cells are trypsinized with 5 mL of trypsin-EDTA (0.05% trypsin, 0.53 mM EDTA-4Na, Gibco Cat. #25300-070) for 1 min. The trypsin is removed by aspiration and the cells dislodged by tapping. Cell Culture medium (eg, 30 mL for 1:30 split) is immediately added and mixed well to inactivate trypsin. 1 mL of detached cells is added to new culture flasks containing fresh cell culture medium (eg, into 25 mL per T-150 flask), and mixed gently. The cells are incubated at 37° C. in 5% CO2. The medium is changed at 3 to 4 days interval (or as appropriate). The cells grow to confluency (approx. >75%-95%) within 7-8 days. All steps are done under sterile conditions.
The cells are washed twice gently with Hank's Balanced Salt solution (e.g,. use 10 mL per T-150 flask). The excess is removed and the cells are bathed for 15-30 min. in an enzyme-free Cell Dissociation Buffer (e.g. use 8 mL Hank's Based, Gibco Cat. #13150-016 per T-150 flask) until the cells are loosened. The contents are transferred to centrifuge tubes (50 mL size) kept in ice bath. All subsequent steps are done at 4° C. The tubes are centrifuged at 300×g for 15 min (1380 rpm on SORVAL, Model RT6000D, using rotor for 50 mL tubes). The supernatant is discarded and the cells suspended in homogeneizing buffer(10 mM Tris-HCl containing 0.25 M sucrose and 1 mM EDTA, pH 7.4) ensuring that the volume of the buffer is about ten times the volume of the cell pellet. The cells are pooled into a centrifuge tube (50 mL) and homogenized with Polytron at setting 6 for 10 sec. The homogenate is transferred into a Potter-Elvjehm homogenizer and homogenized with 3 strokes. The homogenate is centrifuged at 1500×g for 10 min at 4° C. (3100 rpm using SORVAL, model RT6000D, using rotor for 50 mL tubes). The pellet is discarded. The supernatant is centrifuged at 100,000×g for 60 min. at 4° C. (Beckman L8-80M ultracentrifuge; spin at 37,500 rpm with rotor type 70 Ti for 50 mL tubes; 38,000 rpm with type 80Ti for 15 mL tubes; or 35,800 rpm with rotor type 45Ti). The supemantant is discarded and the pellet suspended in 3 to 4 mL of Tris buffer (50 mM TRIS-HCl, pH 7.4). The protein content is estimated by the Bradford or Lowry method. The volume of the membrane suspension is adjusted with the membrane buffer (50 mM Tris-HCl containing 0.1% BSA and 0.1 mM PMSF) to give 3.0 mg/mL (or as appropriate) of protein. The membranes are aliquoted and stored at −70° C.
C. Radioligand Binding Assay: […]
The term inhibition denotes the drop in the measured response relative to a control, in per cent. Regarding `COc1cc(C2=CCCCC2)c(Cl)cc1C(=O)N1Cc2ccc(C(=O)O)n2Cc2ccccc21` [Example 1G, 10-(5-Chloro-4-cyclohex-1-en-1-yl-2-methoxybenzoyl)-10,11-dihydro-5H-pyrrolo[2,1-c][1,4]benzodiazepine-3-carboxylic acid], the inhibition at 0.1 µM worked out at 0%.
With `Cc1cc(C(=O)N2Cc3ccc(C(=O)C(Cl)(Cl)Cl)n3Cc3ccccc32)ccc1C1=CCCCC1` [Example 5D, 2,2,2-Trichloro-1-[10-(4-cyclohex-1-en-1-yl-3-methyl-benzoyl)-10,11-dihydro-5H-pyrrolo[2,1-c][1,4]benzodiazepin-3-yl]-methanone], the “V1a % inhibition @ 100 nM” value stood at 0%.
Regarding `Cc1cc(C(=O)N2Cc3ccc(C(=O)O)n3Cc3ccccc32)ccc1C1=CCCCC1` [Example 5E, 10-(4-Cyclohex-1-en-1-yl-3-methyl-benzoyl)-10,11-dihydro-5H-pyrrolo[2,1-c][1,4]benzodiazepine-3-carboxylic acid], the inhibition at 0.1 µM worked out at 8%.
As for `Cc1cc(C(=O)N2Cc3ccc(C(=O)N(C)C[C@@H]4OC(=O)O[C@H]4[C@H](O)[C@H]4COC(=O)O4)n3Cc3ccccc32)ccc1C1=CCCCC1` [Example 7, 10-(4-Cyclohex-1-en-1-yl-3-methylbenzoyl)-N-[((4S,5S)-5-{(R)-hydroxy[(4R)-2-oxo-1,3-dioxolan-4-yl]methyl}-2-oxo-1,3-dioxolan-4-yl)methyl]-N-methyl-10,11-dihydro-5H-pyrrolo[2,1-c][1,4]benzodiazepine-3-carboxamide], the inhibition at 0.1 µM was found to be 62%.
On to `CCOC(=O)[C@H](Cc1ccc(O)cc1)NC(=O)c1ccc2n1Cc1ccccc1N(C(=O)c1ccc(C3=CCCCC3)c(C)c1)C2` [Example 9, (2S)-2-{[10-(4-Cyclohex-1-en-1-yl-3-methyl-benzoyl)-10,11-dihydro-5H-pyrrolo[2,1-c][1,4]benzodiazepine-3-carbonyl]-amino}-3-(4-hydroxy-phenyl)-propionic acid ethyl ester], for which the inhibition at 0.1 µM was 6%.
Take `Cc1cc(C(=O)N2Cc3ccc(C(=O)N[C@@H](Cc4ccc(O)cc4)C(=O)O)n3Cc3ccccc32)ccc1C1=CCCCC1` [Example 10]: the “V1a % inhibition @ 100 nM” value turned out to be 14%.
For the compound `COC(=O)[C@H](CO)NC(=O)c1ccc2n1Cc1ccccc1N(C(=O)c1ccc(C3=CCCCC3)c(C)c1)C2` [Example 11, (2S)-2-{[10-(4-Cyclohex-1-en-1-yl-3-methyl-benzoyl)-10,11-dihydro-5H-pyrrolo[2,1-c][1,4]benzodiazepine-3-carbonyl]-amino}-3-hydroxy-propionic acid methyl ester], the inhibition at 0.1 µM came out at 6%.
With `COC(=O)[C@@H](CO)NC(=O)c1ccc2n1Cc1ccccc1N(C(=O)c1ccc(C3=CCCCC3)c(C)c1)C2` [Example 12, (2R)-2-{[10-(4-Cyclohex-1-en-1-yl-3-methyl-benzoyl)-10,11-dihydro-5H-pyrrolo[2,1-c][1,4]benzodiazepine-3-carbonyl]-amino}-3-hydroxy-propionic acid methyl ester], the inhibition at 0.1 µM is 16%.
For `Cc1cc(C(=O)N2Cc3ccc(C(=O)N[C@@H](CO)C(=O)O)n3Cc3ccccc32)ccc1C1=CCCCC1` [Example 13, (2S)-2-{[10-(4-Cyclohex-1-en-1-yl-3-methyl-benzoyl)-10,11-dihydro-5H-pyrrolo[2,1-c][1,4]benzodiazepine-3-carbonyl]-amino}-3-hydroxy-propionic acid], the inhibition at 0.1 µM turned out to be 5%.
Same read-out and setting: next, `Cc1cc(C(=O)N2Cc3ccc(C(=O)N[C@H](CO)C(=O)O)n3Cc3ccccc32)ccc1C1=CCCCC1` [Example 14, (2R)-2-{[10-(4-Cyclohex-1-en-1-yl-3-methyl-benzoyl)-10,11-dihydro-5H-pyrrolo[2,1-c][1,4]benzodiazepine-3-carbonyl]-amino}-3-hydroxy-propionic acid]: 6%.
Turning to `Cc1cc(C(=O)N2Cc3ccc(C(=O)O)n3Cc3ccccc32)ccc1C1=CCCc2ccccc21` [Example 15B, 10-[4-(3,4-Dihydro-naphthalen-1-yl)-3-methyl-benzoyl]-10,11-dihydro-5H-pyrrolo[2,1-c][1,4]benzodiazepine-3-carboxylic acid], the inhibition at 0.1 µM is -2%.

Staying with this experiment, now noted: value in parentheses.
The IC50 is the concentration at which inhibition is half-maximal. Regarding `COc1cc(C2=CCCCC2)c(Cl)cc1C(=O)N1Cc2ccc(C(=O)N(C)C[C@H](O)[C@@H](O)[C@H](O)[C@H](O)CO)n2Cc2ccccc21` [Example 1, 1-[[[10-[5-Chloro-4-(1-cyclohex-1-en-1-yl)-2-methoxybenzoyl]-10,11-dihydro-5H-pyrrolo[2,1-c][1,4]benzodiazepin-3-yl]carbonyl]methylamino]-1-deoxy-D-glucitol], the IC50 came to 879 nM.
As to `COC[C@@H](OC)[C@@H](OC)[C@H](OC)[C@H](CN(C)C(=O)c1ccc2n1Cc1ccccc1N(C(=O)c1cc(Cl)c(C3=CCCCC3)cc1OC)C2)OC` [Example 2, 10-(5-Chloro-4-cyclohex-1-en-1-yl-2-methoxybenzoyl)-N-methyl-N-[(2S,3R,4R,5R)-2,3,4,5,6-pentamethoxyhexyl]-10,11-dihydro-5H-pyrrolo[2,1-c][1,4]benzodiazepine-3-carboxamide], the IC50 was 2190 nM.
Take `COc1cc(C2=CCCCC2)c(Cl)cc1C(=O)N1Cc2ccc(C(=O)N(C)C[C@@H]3OC(=O)O[C@H]3[C@H](O)[C@H]3COC(=O)O3)n2Cc2ccccc21` [Example 3, 10-(5-Chloro-4-cyclohex-1-en-1-yl-2-methoxybenzoyl)-N-[((4S,5S)-5-{(R)-hydroxy[(4R)-2-oxo-1,3-dioxolan-4-yl]methyl}-2-oxo-1,3-dioxolan-4-yl)methyl]-N-methyl-10,11-dihydro-5H-pyrrolo[2,1-c][1,4]benzodiazepine-3-carboxamide]: the IC50 stood at 1460 nM.
Regarding `COc1cc(C2=CCCCC2)c(Cl)cc1C(=O)N1Cc2ccc(C(=O)N(C)CC(O)CO)n2Cc2ccccc21` (stereo not shown) [Example 4, 10-(5-Chloro-4-cyclohex-1-en-1-yl-2-methoxybenzoyl)-N-(2,3-dihydroxypropyl)-N-methyl-10,11-dihydro-5H-pyrrolo[2,1-c][1,4]benzodiazepine-3-carboxamide], the IC50 was determined as 613 nM.
In the case of `Cc1cc(C(=O)N2Cc3ccc(C(=O)N(C)C[C@H](O)[C@@H](O)[C@H](O)[C@H](O)CO)n3Cc3ccccc32)ccc1C1=CCCCC1` [Example 5], the IC50 worked out at 182 nM.
For `Cc1cc(C(=O)N2Cc3ccc(C(=O)N(C)C[C@H](O)[C@H]4OC(=O)O[C@@H]4[C@H](O)CO)n3Cc3ccccc32)ccc1C1=CCCCC1` [Example 6, 10-(4-Cyclohex-1-en-1-yl-3-methylbenzoyl)-N-((2S)-2-{(4R,5R)-5-[(1R)-1,2-dihydroxyethyl]-2-oxo-1,3-dioxolan-4-yl}-2-hydroxyethyl)-N-methyl-10,11-dihydro-5H-pyrrolo[2,1-c][1,4]benzodiazepine-3-carboxamide], the IC50 is 62.4 nM.
Turning to `COC[C@@H](OC)[C@@H](OC)[C@H](OC)[C@H](CN(C)C(=O)c1ccc2n1Cc1ccccc1N(C(=O)c1ccc(C3=CCCCC3)c(C)c1)C2)OC` [Example 8, 10-(4-Cyclohex-1-en-1-yl-3-methylbenzoyl)-N-methyl-N-[(2S,3R,4R,5R)-2,3,4,5,6-pentamethoxyhexyl]-10,11-dihydro-5H-pyrrolo[2,1-c][1,4]benzodiazepine-3-carboxamide], the IC50 was determined as 315 nM.
As for `Cc1cc(C(=O)N2Cc3ccc(C(=O)N(C)C[C@H](O)[C@@H](O)[C@H](O)[C@H](O)CO)n3Cc3ccccc32)ccc1C1=CCCc2ccccc21` [Example 15], the IC50 was found to be 646 nM.
